Assay results as given in patent US9770441B1, “Crystalline solid forms of 6-carboxy-2-(3,5-dichlorophenyl)-benzoxazole” (Pfizer Inc., priority 2014, dated 2017).

Tests used:
[1] = hygroscopicity as stated in the description of the solid form; assay type: physicochemical; conditions: crystalline anhydrous form
[2] = isothermal vapor sorption analysis; assay type: physicochemical; conditions: up to 90% relative humidity, ambient temperature
Description: Form 1 was analyzed via isothermal vapor sorption analysis, which is a gravimetric technique that measures how quickly and how much of a solvent is absorbed by a sample: such as a dry powder absorbing water. It does this by varying the vapor concentration surrounding the sample and measuring the change in mass which this produces.

hygroscopicity of the solid form [1]: non-hygroscopic
reversible weight gain [2]: less than 0.25%
Compound: O=C(O)c1ccc2nc(-c3cc(Cl)cc(Cl)c3)oc2c1 [Form 1, 6-carboxy-2-(3,5-dichlorophenyl)-benzoxazole]
